{
  "source": "PubChem BioAssay (NCI)",
  "experiment_in_all_cases": "NCI-60 cell line screen, 48 h",
  "key": {"CCRF-CEM leukemia": {"tested_on": "CCRF-CEM leukemia"}, "ACHN renal": {"tested_on": "ACHN renal"}, "SNB-75 CNS": {"tested_on": "SNB-75 CNS"}, "SNB-19 CNS": {"tested_on": "SNB-19 CNS"}, "MOLT-4 leukemia": {"tested_on": "MOLT-4 leukemia"}, "SW-620 colon": {"tested_on": "SW-620 colon"}, "MCF7 breast": {"tested_on": "MCF7 breast"}, "IGROV1 ovarian": {"tested_on": "IGROV1 ovarian"}, "OVCAR-4 ovarian": {"tested_on": "OVCAR-4 ovarian"}, "CAKI-1 renal": {"tested_on": "CAKI-1 renal"}, "LOX IMVI melanoma": {"tested_on": "LOX IMVI melanoma"}, "NCI-H23 lung": {"tested_on": "NCI-H23 lung"}, "SN12C renal": {"tested_on": "SN12C renal"}, "NCI-H460 lung": {"tested_on": "NCI-H460 lung"}, "786-0 renal": {"tested_on": "786-0 renal"}, "MDA-MB-435": {"tested_on": "MDA-MB-435"}, "COLO 205 colon": {"tested_on": "COLO 205 colon"}, "UO-31 renal": {"tested_on": "UO-31 renal"}, "K-562 leukemia": {"tested_on": "K-562 leukemia"}, "DU-145 prostate": {"tested_on": "DU-145 prostate"}, "SK-MEL-5 melanoma": {"tested_on": "SK-MEL-5 melanoma"}, "BT-549 breast": {"tested_on": "BT-549 breast"}, "M14 melanoma": {"tested_on": "M14 melanoma"}, "OVCAR-3 ovarian": {"tested_on": "OVCAR-3 ovarian"}, "SF-268 CNS": {"tested_on": "SF-268 CNS"}, "HT29 colon": {"tested_on": "HT29 colon"}, "U251 CNS": {"tested_on": "U251 CNS"}, "HCT-15 colon": {"tested_on": "HCT-15 colon"}, "UACC-257 melanoma": {"tested_on": "UACC-257 melanoma"}, "SK-OV-3 ovarian": {"tested_on": "SK-OV-3 ovarian"}},
  "note": "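Interpolation was linear, between the two tested concentrations surrounding the appropriate level; five concentrations were tested over 48 hours in 96-well plates. GI50 = concentration required for 50% inhibition of growth. At the TGI there is no net growth.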",
  "data": [
    {"smiles": "COc1cc2c3c(cc4c5c(ccc4c3c1OC)OCO5)N(CCN(C)C)C2=O", "values": [
      {"measurement": "TGI", "setting": "CCRF-CEM leukemia", "value": 9640, "unit": "nM"},
      {"measurement": "GI50", "setting": "ACHN renal", "value": 21.5, "unit": "nM"},
      {"measurement": "TGI", "setting": "ACHN renal", "value": 81.2, "unit": "nM"},
      {"measurement": "GI50", "setting": "SNB-75 CNS", "value": 71.1, "unit": "nM"},
      {"measurement": "TGI", "setting": "SNB-75 CNS", "value": 583, "unit": "nM"},
      {"measurement": "GI50", "setting": "SNB-19 CNS", "value": 38.9, "unit": "nM"},
      {"measurement": "TGI", "setting": "SNB-19 CNS", "value": 2610, "unit": "nM"},
      {"measurement": "GI50", "setting": "MOLT-4 leukemia", "value": 23.6, "unit": "nM"},
      {"measurement": "TGI", "setting": "MOLT-4 leukemia", "value": 1410, "unit": "nM"},
      {"measurement": "GI50", "setting": "SW-620 colon", "value": 36.3, "unit": "nM"},
      {"measurement": "TGI", "setting": "SW-620 colon", "value": 1330, "unit": "nM"},
      {"measurement": "GI50", "setting": "MCF7 breast", "value": 32.2, "unit": "nM"},
      {"measurement": "TGI", "setting": "MCF7 breast", "value": 579, "unit": "nM"},
      {"measurement": "GI50", "setting": "IGROV1 ovarian", "value": 47.2, "unit": "nM"},
      {"measurement": "TGI", "setting": "IGROV1 ovarian", "value": 501, "unit": "nM"},
      {"measurement": "GI50", "setting": "OVCAR-4 ovarian", "value": 309, "unit": "nM"},
      {"measurement": "TGI", "setting": "OVCAR-4 ovarian", "value": 7840, "unit": "nM"},
      {"measurement": "GI50", "setting": "CAKI-1 renal", "value": 39.3, "unit": "nM"},
      {"measurement": "TGI", "setting": "CAKI-1 renal", "value": 261, "unit": "nM"},
      {"measurement": "TGI", "setting": "LOX IMVI melanoma", "value": 49.6, "unit": "nM"},
      {"measurement": "GI50", "setting": "NCI-H23 lung", "value": 53.8, "unit": "nM"},
      {"measurement": "TGI", "setting": "NCI-H23 lung", "value": 339, "unit": "nM"},
      {"measurement": "GI50", "setting": "SN12C renal", "value": 31.8, "unit": "nM"},
      {"measurement": "TGI", "setting": "SN12C renal", "value": 378, "unit": "nM"},
      {"measurement": "GI50", "setting": "NCI-H460 lung", "value": 17.6, "unit": "nM"},
      {"measurement": "TGI", "setting": "NCI-H460 lung", "value": 147, "unit": "nM"},
      {"measurement": "GI50", "setting": "786-0 renal", "value": 35, "unit": "nM"},
      {"measurement": "TGI", "setting": "786-0 renal", "value": 654, "unit": "nM"},
      {"measurement": "GI50", "setting": "MDA-MB-435", "value": 170, "unit": "nM"},
      {"measurement": "TGI", "setting": "MDA-MB-435", "value": 615, "unit": "nM"},
      {"measurement": "GI50", "setting": "COLO 205 colon", "value": 116, "unit": "nM"},
      {"measurement": "TGI", "setting": "COLO 205 colon", "value": 935, "unit": "nM"},
      {"measurement": "GI50", "setting": "UO-31 renal", "value": 34.3, "unit": "nM"},
      {"measurement": "TGI", "setting": "UO-31 renal", "value": 201, "unit": "nM"},
      {"measurement": "GI50", "setting": "K-562 leukemia", "value": 50, "unit": "nM"},
      {"measurement": "GI50", "setting": "DU-145 prostate", "value": 35.4, "unit": "nM"},
      {"measurement": "TGI", "setting": "DU-145 prostate", "value": 490, "unit": "nM"},
      {"measurement": "GI50", "setting": "SK-MEL-5 melanoma", "value": 92.4, "unit": "nM"},
      {"measurement": "TGI", "setting": "SK-MEL-5 melanoma", "value": 225, "unit": "nM"},
      {"measurement": "GI50", "setting": "BT-549 breast", "value": 234, "unit": "nM"},
      {"measurement": "TGI", "setting": "BT-549 breast", "value": 1530, "unit": "nM"},
      {"measurement": "GI50", "setting": "M14 melanoma", "value": 46.6, "unit": "nM"},
      {"measurement": "TGI", "setting": "M14 melanoma", "value": 400, "unit": "nM"},
      {"measurement": "GI50", "setting": "OVCAR-3 ovarian", "value": 199, "unit": "nM"},
      {"measurement": "TGI", "setting": "OVCAR-3 ovarian", "value": 1140, "unit": "nM"},
      {"measurement": "GI50", "setting": "SF-268 CNS", "value": 104, "unit": "nM"},
      {"measurement": "TGI", "setting": "SF-268 CNS", "value": 1040, "unit": "nM"},
      {"measurement": "GI50", "setting": "HT29 colon", "value": 87.1, "unit": "nM"},
      {"measurement": "TGI", "setting": "HT29 colon", "value": 1260, "unit": "nM"},
      {"measurement": "GI50", "setting": "U251 CNS", "value": 38.9, "unit": "nM"},
      {"measurement": "TGI", "setting": "U251 CNS", "value": 1430, "unit": "nM"},
      {"measurement": "GI50", "setting": "HCT-15 colon", "value": 34, "unit": "nM"},
      {"measurement": "TGI", "setting": "HCT-15 colon", "value": 605, "unit": "nM"},
      {"measurement": "GI50", "setting": "UACC-257 melanoma", "value": 166, "unit": "nM"},
      {"measurement": "TGI", "setting": "UACC-257 melanoma", "value": 596, "unit": "nM"},
      {"measurement": "GI50", "setting": "SK-OV-3 ovarian", "value": 74.6, "unit": "nM"},
      {"measurement": "TGI", "setting": "SK-OV-3 ovarian", "value": 600, "unit": "nM"}
    ]}
  ]
}
